The numbers were not newly measured in US20070212307A1, “Pharmaceutical Compositions Comprising an Opioid Receptor Antagonist and Methods of Using Same” (priority 2006, published 2007), which cites them from elsewhere.

The conditions of the data set: 50 mg oral dose.

Take `O=C1CC[C@@]2(O)[C@H]3Cc4ccc(O)c5c4[C@@]2(CCN3CC2CC2)[C@H]1O5` [naltrexone]: the oral bioavailability is on record as 10%-25%.
